In US12246081B2, “Deodorant compositions” (Conopco, Inc., priority 2017, dated 2025):

Test system: S. hominis B10 C-S β lyase
Assay: Transformation of Cys-3M3SH to 3M3SH by purified S. hominis B10 C-S β lyase
Assay type: biochemical, Staphylococcus hominis
Details: for % inhibition: 2 mM Cys-3M3SH, 35° C. for 24 hours, relative to control without compound; for susceptibility of S. hominis C-S β-lyase to inhibition by classical inhibitors: qualitative statement, no concentration given
Description: The compounds identified by present invention represent a new class of deodorant actives that can be screened by the method disclosed herein. The method uses an odour-generating C-S β-lyase, in particular S. hominis B10 C-S β-lyase. In accordance with the procedure detailed in Example 1, the medium of the screening method comprises a 20 millimolar concentration of the compound to be screened. The medium further comprises S. hominis C-S β-lyase enzyme and 2 millimolar Cys-3M3SH. Following an incubation at 35° C. for a period of 24 hours, the reduction in 3M3SH released by S. hominis C-S β-lyase from Cys-3M3SH is measured. Herein, the inhibition of 3M3SH level is relative to a control without any compound being screened. In preferred embodiments, following the procedure detailed in Example 1, the medium comprises a 10 millimolar concentration of compound to be screened. In further preferred embodiments, the concentration of the compound to be screened can be 5 millimolar, preferably 2 millimolar, more preferably 1 millimolar, most preferably 0.5 millimolar.
The deodorant actives affecting S. hominis C-S β lyase are identified by using the following procedure. The Cys-3M3SH used in the procedure may be obtained using a method described in Chem. Biodivers., 2, 2005, 705-716. The purified S. hominis B10 C-S β lyase was prepared by cloning the gene encoding this enzyme into Escherichia coli using methodology known in the art. Recombinant S. hominis B10 C-S β-lyase was then expressed in E. coli and purified by immobilised metal ion affinity chromatography. M9 salts are mixtures of 6 g/L Na2HPO4, 3 g/L KH2PO4, 0.5 g/L NaCl, adjusted to pH 7.0 with NaOH.
Glass reaction tubes were set up, each containing 2 mM Cys-3M3SH (dissolved in M9 salts), 50 μM pyridoxal phosphate, purified S. hominis B10 C-S β lyase to a final concentration of 10 μg/ml, and M9 salts (or, where appropriate, a test material dissolved in M9 salts at, for example, 20 mM) to adjust the volume to 500 μl. Enzyme only (C-S beta-lyase) and substrate only (Cys-3M3SH) reactions were also included in each experiment. The reactions were incubated with shaking at 35° C. for 24 hours. To measure released 3M3SH, each reaction vial was first centrifuged at 13,000 rpm for 2 minutes. A volume of 0.095 ml labelling solution, consisting of 0.080 ml dH2O, 0.010 ml Tris (pH 8.0) and 0.005 ml 5,5′-dithiobis-(2-nitrobenzoic acid) (DTNB) stock solution (50 mM sodium acetate, 2 mM DTNB, dissolved in dH2O) was added to each well of a micro-titre plate. 0.005 ml of each reaction supernatant was added to the wells of the micro-titre plate, which was then incubated at room temperature for 5 minutes. Absorbance (A412) values, which correlate with the concentration of 3M3SH present, were recorded using a spectrophotometer. […] In these cases, a HPLC analysis was carried out according to the methodology described in J. Pharm. Biomed. Anal. 2008; 48:1375-80 and FEMS Microbiol. Lett., 263(16), 2015, fnv111.

[1] = material concentration = 2 millimolar
[2] = material concentration = 20 millimolar

Row | Compound | % inhibition [1] [%] | % inhibition [2] [%] | % inhibition (material concentration = 2 millimolar, listed as Cl) | susceptibility of S. hominis C-S β-lyase to inhibition by classical inhibitors
1 | 1,8-Dioxa-4-azaspiro[4.5]decane-3-carboxylic acid(N-CBz protected) [EX17] | 54.1 | – | – | –
2 | 1-oxa-4-azaspiro[4.5]decane-3-carboxylic acid(N-CBz protected) [EX16] | 30.3 | – | – | –
3 | 2-(2-furyl)1,3-thiazolide-4-carboxylic acid [EX4] | 20.8 | 80.4 | – | –
4 | N[C@H](COCc1ccccc1)C(=O)O [C1, O-benzyl-D-serine, reference compound] | 0 | 8.2 | does not present significant reduction of malodour | –
5 | COc1ccc(C2NC(C(=O)O)CS2)cc1O (stereo not shown) [EX1, 2-(3-hydroxy-4-methoxy-phenyl)-thiazolidine-4-carboxylic acid] | 34.9 | 100 | – | –
6 | COc1cc(C2NC(C(=O)O)CS2)ccc1O (stereo not shown) [EX2, 2-(4-hydroxy-3-methoxyphenyl)-1,3-thiazolidine-4-carboxylic acid] | 32.9 | 100 | – | –
7 | O=C(O)C1CSC2(CCC3(CC2)OCCO3)N1 (stereo not shown) [EX3, 1,4-dioxa-9-thia-12-azadispirol[4.2.4.2]tetradecane-11-carboxylic acid] | 32.3 | 80.6 | – | –
8 | CCC(CC)C1NC(C(=O)O)CS1 (stereo not shown) [EX5, 2-(1-ethylpropyl)-4-thiazolidine-4-carboxylic acid] | 46 | 94.1 | – | –
9 | O=C(O)C1CSC2(CCCCC2)N1 (stereo not shown) [EX6, 1-thia-4-azaspiro[4.5]decane-3-carboxylic acid] | 90.9 | 100 | – | –
10 | O=C(O)C1CSC2(CCN(Cc3ccccc3)CC2)N1 (stereo not shown) [EX7, 8-benzyl-1-thia-4,8-diazaspiro[4.5]decane-3-carboxylic acid] | 11.9 | 87.8 | – | –
11 | O=C(O)C1CSC(c2ccccc2)N1 (stereo not shown) [EX8, 2-phenylthiazolidine-4-carboxylic acid] | 12.3 | 95.9 | – | –
12 | C=CCOc1ccc(C2NC(C(=O)O)CS2)cc1 (stereo not shown) [EX9, 2-(4-(allyloxy)phenyl)-1,3-thiazolidine-4-carboxylic acid] | 39.7 | 100 | – | –
13 | COc1ccc(C2NC(C(=O)O)CS2)cc1 (stereo not shown) [EX10, 2-(4-methoxyphenyl)-1,3-thiazolidine-4-carboxylic acid] | 24.5 | 88.2 | – | –
14 | CCCCCCC1NC(C(=O)O)CS1 (stereo not shown) [EX11, 2-hexyl-1,3-thiazolane-4-carboxylic acid] | 87.5 | 100 | – | –
15 | O=C(O)C1CSC(c2ccccc2O)N1 (stereo not shown) [EX12, 2-(2-hydroxy-pheny)-thiazolidine-4-carboxylic acid] | 46.5 | 100 | – | –
16 | N[C@H]1CONC1=O [L-cycloserine, reference compound] | – | – | – | much less susceptible to inhibition
17 | NOCC(=O)O [aminooxyacetic acid, reference compound] | – | – | – | much less susceptible to inhibition
